How the values were obtained:
Saprolegnia = experiment: Antifungal activity against Saprolegnia species; type: functional
Microsporum canis = experiment: Antifungal activity against Microsporum canis; type: functional
Trichophyton rubrum = experiment: Antifungal activity against Trichophyton rubrum; type: functional
Trichophyton benhamiae = experiment: Antifungal activity against Trichophyton mentagrophytes; type: functional, trychophyton mentagrophytes
Streptococcus pyogenes = experiment: Antibacterial activity against Streptococcus pyogenes; type: functional
Candida albicans = experiment: Antifungal activity against Candida albicans; type: functional
Candida tropicalis = experiment: Antifungal activity against Candida tropicalis; type: functional
Phialophora verrucosa = experiment: Antifungal activity against Phialophora verrucosa; type: functional
[1] = system: Staphylococcus haemolyticus; experiment: Antibacterial against Staphylococcus hemolyticus; type: functional
Cryptococcus neoformans = experiment: Antifungal activity against Cryptococcus neoformans; type: functional
Mucor = experiment: Antifungal activity against Mucor species; type: functional
Aspergillus fumigatus = experiment: Antifungal activity against Aspergillus fumigatus; type: functional
[2] = system: Erysipelothrix rhusiopathiae; experiment: Antibacterial activity against Erysipelothrix insidiosa; type: functional
Sporothrix schenckii = experiment: Antifungal activity against Sporothrix schenck ii; type: functional
[3] = Ratio of animals cured to that of animals infected, tested in vivo for antifungal activity against cutaneous candidosis in guinea pig; 0/2; type: functional; note: test concentration or dose not given here
[4] = Ratio of animals cured to that of animals infected, tested in vivo for antifungal activity against vaginal candidosis in rat; 0/2; note: test concentration or dose not given here

Compound | Inhibition (Saprolegnia) [µg/mL] | Inhibition (Microsporum canis) [µg/mL] | Inhibition (Trichophyton rubrum) [µg/mL] | Inhibition (Trichophyton benhamiae) [µg/mL] | Inhibition (Streptococcus pyogenes) [µg/mL] | Inhibition (Candida albicans) [µg/mL] | Inhibition (Candida tropicalis) [µg/mL] | Inhibition (Phialophora verrucosa) [µg/mL] | Inhibition [1] [µg/mL] | Inhibition (Cryptococcus neoformans) [µg/mL] | Inhibition (Mucor) [µg/mL] | Inhibition (Aspergillus fumigatus) [µg/mL] | Inhibition [2] [µg/mL] | Inhibition (Sporothrix schenckii) [µg/mL] | Ratio [3] | Ratio [4]
Clc1ccc(C2(Cn3ccnc3)OCC(c3ccccc3Cl)O2)c(Cl)c1 (centres undefined) | 100 | 10 | <1 | <1 | <1 | 100 | 100 | 100 | 1 | <1 | 100 | 100 | <1 | 10 | – | –
Cc1ccc(C2(Cn3ccnc3)OCC(c3ccc(Cl)cc3)O2)cc1 (centres undefined) | 100 | <1 | <1 | <1 | <1 | >100 | 100 | 100 | 10 | <1 | 10 | <1 | <1 | 10 | 0 | –
Cc1ccc(C2(Cn3ccnc3)OCC(c3ccc(Cl)cc3Cl)O2)cc1 (centres undefined) | 100 | 10 | <1 | <1 | <1 | >100 | >100 | 100 | 1 | 10 | 100 | 100 | <1 | 10 | 0 | –
Clc1cccc(C2(Cn3ccnc3)OCC(c3ccc(Cl)cc3Cl)O2)c1 (centres undefined) | 100 | 100 | <1 | 10 | <1 | 100 | 100 | >100 | 100 | 100 | 100 | 100 | 10 | 10 | 0 | 0
Clc1ccc(C2COC(Cn3ccnc3)(c3ccc(Br)cc3)O2)cc1 (centres undefined) | 100 | <1 | <1 | <1 | 1 | >100 | 100 | 100 | 100 | 100 | >100 | 10 | 1 | 10 | 0 | 0
Clc1ccc(C2COC(Cn3ccnc3)(c3ccccc3Cl)O2)c(Cl)c1 (centres undefined) | 10 | <1 | <1 | <1 | <1 | >100 | >100 | 100 | 10 | <1 | >100 | <1 | 1 | <1 | – | 0
Clc1ccc(C2COC(Cn3ccnc3)(c3ccccc3Cl)O2)cc1 (centres undefined) | 10 | <1 | <1 | <1 | <1 | 100 | 100 | 100 | 100 | 100 | 100 | <1 | <1 | 10 | – | –
COc1ccc(C2(Cn3ccnc3)OCC(c3ccc(Cl)cc3)O2)cc1 (centres undefined) | 100 | <1 | 10 | <1 | 10 | >100 | >100 | 100 | 100 | >100 | 100 | <1 | 10 | 10 | 0 | –
Clc1ccc(C2(Cn3ccnc3)OCC(c3ccccc3)O2)cc1 (centres undefined) | 100 | 10 | <1 | <1 | <1 | 100 | >100 | 100 | 10 | 10 | 100 | 10 | 1 | 10 | – | –
Cc1ccc(C2(Cn3ccnc3)OCC(c3ccc(Br)cc3)O2)cc1 (centres undefined) | 10 | <1 | <1 | <1 | <1 | >100 | >100 | >100 | 10 | >100 | >100 | <1 | <1 | >100 | 0 | 0
Clc1ccccc1C1(Cn2ccnc2)OCC(c2ccc(Br)cc2)O1 (centres undefined) | 10 | <1 | <1 | <1 | 10 | 100 | 10 | 10 | 10 | <1 | 10 | <1 | 10 | 10 | – | –
Brc1ccc(C2COC(Cn3ccnc3)(c3ccccc3)O2)cc1 (centres undefined) | 100 | <1 | <1 | <1 | <1 | 100 | >100 | 100 | >100 | 10 | 100 | 10 | 1 | 10 | – | –
Brc1ccc(C2(Cn3ccnc3)OCC(c3ccccc3)O2)cc1 (centres undefined) | 100 | <1 | <1 | <1 | <1 | 100 | >100 | 100 | 100 | 10 | 100 | 100 | 10 | 100 | 0 | 0
Clc1ccc(C2COC(Cn3ccnc3)(c3ccc(Br)cc3)O2)c(Cl)c1 (centres undefined) | >100 | 10 | <1 | 10 | 1 | >100 | >100 | >100 | 100 | >100 | 100 | >100 | 1 | 100 | 0 | –
Clc1ccc(C2(Cn3ccnc3)OCC(c3ccc(Cl)cc3Cl)O2)cc1 (centres undefined) | 100 | 10 | <1 | <1 | <1 | 100 | >100 | 100 | 10 | 10 | 100 | 100 | 1 | 10 | – | 0
Clc1ccc(C2(Cn3ccnc3)OCC(Cc3ccc(Br)cc3)O2)c(Cl)c1 (centres undefined) | 100 | <1 | <1 | <1 | <1 | 10 | >100 | 100 | 10 | <1 | <1 | 10 | <1 | 10 | – | 0

— ChEMBL document CHEMBL1121748, “Antimycotic imidazoles. 5. Synthesis and antimycotic properties of 1-[[2-aryl-4-(arylalkyl)-1,3-dioxolan-2-yl]methyl]-1H-imidazoles” (1981)
